Values of other authors in patent US10783985B2, “Physics-based computational methods for predicting compound solubility” (Schrödinger, LLC, priority 2015, dated 2020).
One block for each compound: values may come before it.

Conditions: for Expt. Solubility: Table 1, experimentally determined
[1] = experimental, Ilevbare and Taylor 2013

Structure (SMILES): CC(=O)Nc1ccc(O)cc1 [acetaminophen]
- aqueous solubility (experimental, NIH Pubchem database, printed conversion of the mg/L value): ~36,000 μM

Structure (SMILES): CN1CCN(C2=Nc3cc(Cl)ccc3Nc3ccccc32)CC1 [clozapine]
- Expt. Solubility: 26.93 µM

Structure (SMILES): COc1ccc2c(c1)c(CC(=O)O)c(C)n2C(=O)c1ccc(Cl)cc1 [indomethacin]
- Expt. Solubility: 8.38 µM

Now from value to compound:

- Expt. Solubility: 1.16 µM
Structure (SMILES): Clc1ccccc1C(c1ccccc1)(c1ccccc1)n1ccnc1 [clotrimazole]

- "amorphous" solubility [1]: 22.1 µM
- "equilibrium" solubility [1]: 2.5 µM
- solubility class (BCS), experimental data (felodipine comparison data): low solubility (BCS Class II/IV)
Structure (SMILES): CCOC(=O)C1=C(C)NC(C)=C(C(=O)OC)C1c1cccc(Cl)c1Cl (stereo not shown) [felodipine]
